Laboratory results as given in patent US8343991B2, “Anhydrous crystalline vinflunine salts, method of preparation and use thereof as a drug and means of vinflunine purification” (Pierre Fabre Medicament, priority 2007, dated 2013).

Legend:
[1] = Comparative stability of amorphous ditartrate and crystalline fumarate, powder form, HPLC analysis; format: physicochemical; conditions: for degradation in powder form: 14 days
Protocol: Comparative stability of amorphous ditartrate and crystalline fumarate:
1. Raw material: • Batch OP3.0B: amorphous vinflunine ditartrate. • Batch JLM4008400: crystalline vinflunine fumarate.
(§1) 2. Stability conditions: • Stability studies are carried out on the powder form away from light under the following conditions: • closed bottle: 50° C., • open bottle: 40° C., 75% relative humidity. • A measurement is taken at T0 and at T0+14 days.
3. Analytical conditions: • HPLC system: • Column: Sunfire C18, 5 μm, 4.6×250 mm (Waters) temperature maintained at 35° C. • Eluent: CH3CN/MeOH/H2O/KH2PO4 400/150/450/6.8 (ml/ml/ml/g) adjusted to pH 7 (with KOH). • Flow rate: 1 ml/min • Detection: 269 nm

[2] = Water content of the powder in the comparative stability study; format: physicochemical
Protocol: as §1

[3] = T0 + 14 d, 40° C., 75% RH, open bottle, powder away from light
[4] = T0 + 14 d, 50° C., closed bottle, powder away from light
[5] = in the presence of moisture (40° C., 75% RH)
[6] = T0 + 14 d, 40° C., 75% RH, open bottle

| Substance | degradation in powder form ([1]; 50° C. (closed bottle)) | HPLC analysis [1, 3] [%] | HPLC analysis [1, 4] [%] | HPLC analysis ([1]; T0, powder, before storage) [%] | degradation in powder form [1, 5] | Water content ([2]; T0) [%] | Water content [2, 6] [%] |
| --- | --- | --- | --- | --- | --- | --- | --- |
| vinflunine ditartrate [OP3.OB] | 2.1% | 98.21 | 97.18 | 99.28 | 1.07% | 6.27 | 10.18 |
| vinflunine fumarate [JLM4008400] | less than 0.2% | 99.38 | 99.56 | 99.52 | less than 0.2% | 1.33 | 4.18 |
